From patent US5681738A, “Use of 10-oxo-trans-8-decenoic acid in mushroom cultivation” (The Penn State Research Foundation, priority 1992, dated 1997)

Assays:
[1] = tested on: Agaricus bisporus mycelia; test: Dry matter of mycelia grown in potato dextrose yeast broth at 25° C.; assay type: cell-based, Agaricus bisporus (hybrid off-white); settings: Week 5, control 15.6 b
Experimental: (§1) The commercial mushroom spawn (hybrid off-white), Agaricus bisporus (Lange) Imbach, was obtained from Alpha Spawn Co., Avondale, Pa., and inoculated onto potato dextrose yeast (PDY) agar (Difco) and incubated at 25° C. A pure culture was obtained from the grain spawn grown on petri dishes and re-inoculated into PDY agar and maintained at 25° C. before use.
(§2) The mushroom culture was grown on PDY agar or in PDY broth, both containing 0.5% yeast extract. The broth was dispensed into flasks prior to autoclaving, 50 mL. per flask, while 5 mL of sterile ODA solutions were aseptically added into flasks before inoculation.
(§3) To prepare ODA solutions, about 18.4 mg (0.1 mmole) of 10-oxo-trans-8-decenoic acid prepared as described above were dissolved in i mL ethanol and diluted with deionized water to 100 mL to give a molar concentration of 10^-3 M, and then diluted in order to add 1.0 mL of the solutions to each flask to give the required final concentrations.
Sterile ODA solutions were aseptically added into the autoclaved agar medium to achieve the desired final ODA concentrations, and then the medium was dispensed into petri dishes, ca 30 ml per dish. The levels of ODA tested included 2×10^-4, 10^-4, 10^-5, 10^-6 and 10^-7 M for both PDY agar and broth. These flasks and dishes were inoculated with 1 mm mycelial plugs from 4-week old cultures and incubated statically at 25° C. for 5 weeks. Each week, ca 300 μL of broth was aseptically taken from the flasks for laccase assay, while the colony diameter of every petri dish was measured using a vernier caliper to calculate the linear growth of the culture.
After 5-weeks of incubation, the dry matter of mycelia was determined by vacuum filtering liquid cultures in PDY broth through weighed filter paper, and drying to constant weight at 70° C.
(§4) Methods for the estimation of total fungal growth include the measurement of dry matter, linear growth, carbon dioxide evolution, chitin, ATP as well as extracellular laccase activity (Cochrane, (1958); Wood, (1979)). In this research the linear growth rate was used to examine the growth of mushroom mycelia on agar plates, while the extracellular laccase activity and dry matter were determined to estimate the growth of mycelia in liquid cultures. Extracellular laccases (p-diphenol: oxygen oxidoreductase, EC 1.10.3.2) produced by various classes of fungi are reported to be involved in biotransformation of lignin and lignosulfonate (Anders et al., (1976)), as well as in the breakdown of cellulose by cellulase (Westermark et al., (1974a); Westermark et al., (1974b); Haars et al., (1980)). Although the role of laccase in growth and development of Agaricus bisporus is not well defined, it has been observed that laccase production correlated with mycelial biomass of this fungus (Wood, (1979); Matcham et al., (1985); Claydon et al., (1988)).

[2] = tested on: separated stipes of Agaricus bisporus; test: Elongation of upper stipes of separated stipes (upper and lower portions) on test agar containing ODA, 3-day storage at 12° C.; parameters: species or system Agaricus bisporus (hybrid off-white); settings: for % Elongation of upper stipes, Mean: control 14.4
Experimental: Four type strains of mushrooms were used: the white, off-white, hybrid white (U3) and hybrid off-white (U1). Mushrooms from each flush were harvested before the veil was broken. Freshly harvested mushrooms were transported within about one hour after harvest to Borland Laboratory and placed in the pilot plant cold room (4° C.) for about two hours before sampling. Mushrooms were sorted on the basis of size and appearance. Diseased, damaged, misshapen, veil-opened and extremely large or small mushrooms (>40 or <25 mm in cap diameter) were discarded. Mushrooms of uniform size (25-40 mm) and maturity of the button stage (stage 1, veil intact tightly) were used in this research.
Whole stipes were cut at the lower portions to a length of 7-9 mm to standardize the sample, and marked at the middle of the veil, which is the location where the veil attaches to the stipe, to indicate the upper and lower stipes. The separated stipes contained 2-4 mm of upper stipes and 5-6 nun of lower stipes. For the study using separated upper stipes, mushrooms were dissected directly into upper stipes with a length of 3-5 mm. The separated stipes or upper stipes were put upside down on the test agar containing various mushroom supernatants or ODA concentrations; i.e., the upper sides in contact with the agar surface (FIG. 12). All petri dishes were covered and stored at 12° C. The length of separated stipes and upper stipes was measured using a vernier caliper before and after certain days of storage.
Sterile ODA solutions were aseptically added into the autoclaved agar solutions to achieve the desired final ODA concentrations. The agar solution was then dispensed into dishes, ca 20.8 mL per dish. The level of ODA tested included 10^-4, 10^-5, 10^-6, 10^-7, and 10^-8 M. Mushrooms (hybrid off-white) from 6 different crops were used to study their postharvest growth. In the first 2 experiments, mushroom stipes were measured after 4-day storage at 12° C. In order to prevent stipe deterioration and desiccation of the test agar, in the following experiments mushroom stipes were measured after 3-day storage at 12° C.
The experimental data were subjected to a single classification analysis of variance (AOV) for a completely randomized design (Steele et al., 1980). Fisher's protected least significant difference (LSD) was applied to separate the means. The level of significance used in this research was 0.05.
ODA stimulated the elongation of upper stipes in excess of the control, but the response occurred only when the lower portions were present. The additional elongation of upper stipes was stimulated by ODA at a concentration as low as 10^-8 M (0.00184 ppm).

[3] = tested on: Agaricus bisporus mycelia; test: Linear growth rate of mycelia on potato dextrose yeast (PDY) agar at 25° C.; assay type: cell-based, Agaricus bisporus (hybrid off-white); settings: for linear growth rate of mycelia (in words): PDY agar; for Linear growth rate: control 5.66
Experimental: as §1, §2, §3
Sterile ODA solutions were aseptically added into the autoclaved agar medium to achieve the desired final ODA concentrations, and then the medium was dispensed into petri dishes, ca 30 ml per dish. The levels of ODA tested included 2×10^-4, 10^-4, 10^-5, 10^-6 and 10^-7 M for both PDY agar and broth. […]
as §4

SMILES: O=C/C=C/CCCCCCC(=O)O [ODA, 10-oxo-trans-8-decenoic acid]
- Dry matter ([1]; ODA 2 × 10^-4 M (36.8 ppm)): 16.7 mg
- Dry matter ([1]; ODA 10^-4 M (18.4 ppm)): 23.2 mg
- Dry matter ([1]; ODA 10^-5 M (1.84 ppm)): 48.5 mg
- Dry matter ([1]; ODA 10^-6 M (0.184 ppm)): 44.1 mg
- Dry matter ([1]; ODA 10^-7 M (0.0184 ppm)): 16.9 mg
- minimal effective concentration ([2]; Agaricus bisporus, 72 h, 0.00184 ppm, separated stipes with lower portions, read-out: lowest concentration stimulating additional elongation of upper stipes): 0.01 µM
- % Elongation of upper stipes, Mean ([2]; ODA 10^-4 M (18.4 ppm)): 30.0%
- % Elongation of upper stipes ([2]; ODA 10^-4 M (18.4 ppm), rep 1, control 14.5): 25.1%
- % Elongation of upper stipes ([2]; ODA 10^-4 M (18.4 ppm), rep 2, control 11.6): 30.5%
- % Elongation of upper stipes ([2]; ODA 10^-4 M (18.4 ppm), rep 3, control 17.1): 34.2%
- % Elongation of upper stipes, Mean ([2]; ODA 10^-5 M (1.84 ppm)): 27.7%
- % Elongation of upper stipes ([2]; ODA 10^-5 M (1.84 ppm), rep 1, control 14.5): 30.7%
- % Elongation of upper stipes ([2]; ODA 10^-5 M (1.84 ppm), rep 2, control 11.6): 25.0%
- % Elongation of upper stipes ([2]; ODA 10^-5 M (1.84 ppm), rep 3, control 17.1): 27.4%
- % Elongation of upper stipes, Mean ([2]; ODA 10^-6 M (0.184 ppm)): 29.5%
- % Elongation of upper stipes ([2]; ODA 10^-6 M (0.184 ppm), rep 1, control 14.5): 27.5%
- % Elongation of upper stipes ([2]; ODA 10^-6 M (0.184 ppm), rep 2, control 11.6): 24.7%
- % Elongation of upper stipes ([2]; ODA 10^-6 M (0.184 ppm), rep 3, control 17.1): 36.2%
- % Elongation of upper stipes, Mean ([2]; ODA 10^-7 M (0.0184 ppm)): 30.9%
- % Elongation of upper stipes ([2]; ODA 10^-7 M (0.0184 ppm), rep 1, control 14.5): 27.3%
- % Elongation of upper stipes ([2]; ODA 10^-7 M (0.0184 ppm), rep 2, control 11.6): 38.3%
- % Elongation of upper stipes ([2]; ODA 10^-7 M (0.0184 ppm), rep 3, control 17.1): 27.2%
- % Elongation of upper stipes, Mean ([2]; ODA 10^-8 M (0.00184 ppm)): 30.5%
- % Elongation of upper stipes ([2]; ODA 10^-8 M (0.00184 ppm), rep 1, control 14.5): 23.7%
- % Elongation of upper stipes ([2]; ODA 10^-8 M (0.00184 ppm), rep 2, control 11.6): 32.7%
- % Elongation of upper stipes ([2]; ODA 10^-8 M (0.00184 ppm), rep 3, control 17.1): 35.1%
- effect on upper stipe elongation (in words) ([2]; all levels, only when lower portions present): significant effect
- linear growth rate of mycelia (in words) ([3]; 2×10^-4 and 10^-4 M (36.8 and 18.4 ppm)): greatly increased
- linear growth rate of mycelia (in words) ([3]; 10^-5 M (1.84 ppm)): slightly increased
- activity at 200 µM ([3]; Agaricus bisporus, ODA 2 × 10^-4 M (36.8 ppm), control 1.00 d, significance letter a, read-out: Relative linear growth rate): 188%
- activity at 100 µM ([3]; Agaricus bisporus, ODA 10^-4 M (18.4 ppm), control 1.00 d, significance letter b, read-out: Relative linear growth rate): 150%
- activity at 10 µM ([3]; Agaricus bisporus, ODA 10^-5 M (1.84 ppm), control 1.00 d, significance letter c, read-out: Relative linear growth rate): 114%
- activity at 1 µM ([3]; Agaricus bisporus, ODA 10^-6 M (0.184 ppm), control 1.00 d, significance letters cd, read-out: Relative linear growth rate): 110%
- activity at 0.1 µM ([3]; Agaricus bisporus, ODA 10^-7 M (0.0184 ppm), control 1.00 d, significance letters cd, read-out: Relative linear growth rate): 105%
- Linear growth rate ([3]; ODA 2 × 10^-4 M (36.8 ppm) in PDY agar): 9.85 mm/wk
- Linear growth rate ([3]; ODA 10^-4 M (18.4 ppm) in PDY agar): 8.42 mm/wk
- Linear growth rate ([3]; ODA 10^-5 M (1.84 ppm) in PDY agar): 6.40 mm/wk
- Linear growth rate ([3]; ODA 10^-6 M (0.184 ppm) in PDY agar): 6.17 mm/wk
- Linear growth rate ([3]; ODA 10^-7 M (0.0184 ppm) in PDY agar): 5.90 mm/wk
- effect on mushroom mycelial growth (in words) ([3]; PDY agar and broth, linear growth, dry matter and laccase activity): significant stimulatory effect
